Measurements taken from patent US11504414B2, “Bacterial inhibitors” (priority 2016, dated 2022).
Where no end group is shown, it is not given here.

B1: C-terminal domain: C-terminal domain of S. cristatus arginine deiminase, 208 amino acid portion (protein, listed as Streptococcus cristatus)
chain: VYNREEDTRIEGGDELVLSKDVLAVGISQRTDAASIEKLLVNIFKKNVGFKKVLAFEFANNRKFMHLDTVFTMVDYDKFTIHPEIEGDLRVYSVTYENEKLKIVEEKGDLAELLAQNLGVEKVHLIRCGGGNIVAAGREQWNDGSNTLTIAPGVVVVYDRNTVTNKILEEYGLRLIKIRGSELVRGRGGPRCMSMPFEREEV

Key:
[1] = tested on: surface extracts of P. gingivalis 33277; assay: ArcA peptide microarray binding of surface extracts; set-up: species or system Porphyromonas gingivalis; details: portions of ArcA
Protocol: The five highest peaks are numbered.
Protein Interaction Screening. Surface extracts of P. gingivalis were collected by sonication (1 min for three times) and centrifugation (13000 g for 30 min) followed by filtration (0.2 μm pore size). Peptide microarray analysis was performed by PEPperPRINT (Heidelberg, Germany). An ArcA microarray was generated with 409 different peptides of ArcA, and each peptide contained 15 amino acids with a peptide-peptide overlap of 14 amino acids. After blocking and washing, the array was incubated with surface extracts (100 μg/ml) isolated from P. gingivalis 33277, the 0806 mutant, or the ragB mutant. P. gingivalis surface proteins bound on the ArcA array were detected using anti-P. gingivalis antibodies and sheep anti-rabbit IgG (H+L) DyLight680. The arrays were analyzed with a LI-COR Odyssey Imaging System.

P. gingivalis 33277 [2] = assay type: cell-based, Porphyromonas gingivalis; details: for inhibitory activity on virulence gene expression: lower efficiency than peptide4; for Relative expression level fmA / Relative expression level kgp / Relative expression level mfa1 / Relative expression level pgn0128 / Relative expression level rgpA / Relative expression level rgpA/B: peptide 16 μM in TSB; for Relative expression level fmA: mRNA by real-time PCR relative to absence of peptides = 1 unit, mean of three experiments; for Relative expression level kgp / Relative expression level mfa1 / Relative expression level pgn0128 / Relative expression level rgpA / Relative expression level rgpA/B: mRNA relative to absence of peptides = 1 unit
Protocol: The half inhibitory concentration (IC50) was measured by conducting three independent experiments to determine mRNA levels of fimA, mfa1, rgpA/B, and kgp in the presence of peptide4 at the concentrations 0, 4, 16, and 64 μM, respectively. The IC50 for each gene was established using a Microsoft Excel program with add-in for curve fitting. Asterisks indicate the statistical significances of IC50 of peptide4 for a specific gene when compared to that for the fimA gene (P<0.05; t test).
RNA isolation and qPCR. P. gingivalis were homogenized in Trizol Reagent (Invitrogen, Carlsbad, Calif.) and RNA was purified using an RNeasy mini spin column (Qiagen, Valencia, Calif.). RNA samples were digested on-column with RNase-free DNase, and total RNA was tested using an Agilent 2100 Bioanalyzer to ensure the quality of the samples. Amplification reactions consisted of a reverse transcription using a Bio-Rad iScript Reverse Transcription Supermix on a TC-3000 thermal cycler (Techne, Staffordshire, ST15 OSA, UK) and a real-time qRT-PCR analysis using a QuantiTect SYBR Green RT-PCR Kit (Qiagen) on an iCycler MyiQ™ Real-Time PCR detection system (Bio-Rad Laboratories, Inc, Hercules, Calif.) according to the manufacturer's instructions. P. gingivalis 16 S rRNA gene was used as a normalizing gene. The melting curve profile was analyzed to verify a single peak for each sample, which indicated primer specificity. The expression levels of the investigated genes for the test sample were determined relative to the untreated calibrator sample by using the comparative cycle threshold (ΔCT) method. ΔCT was calculated by subtracting the average CT value of the test sample from the average CT value of the calibrator sample, and the value used to calculate the ratio between the two by assuming 100% amplification efficiency.
Peptide synthesis and activity. Peptides were synthesized by PEPperPRINT and Biomatik (Delaware) and purified with High Performance Liquid Chromatography (HPLC) at 90% purity. Peptides were resuspended in nuclease/proteinase-free PBS, aliquoted, and stored at −20° C. Inhibitory activity of peptides were determined as described (Hajishengallis, G., Darveau, R. P. & Curtis, M. A. The keystone-pathogen hypothesis. Nature reviews. Microbiology 10, 717-725, doi:10.1038/nrmicro2873 (2012)) with slight modification. Peptides were mixed with 5×10^5 cells of P. gingivalis, spotted onto a TSB blood agar plate, and cultured for 60 h anaerobically. The expression levels of fimbrial and gingipain mRNA or proteins were measured using qRT-PCR or western blot analyses.
P. gingivalis 33277 was grown TSB in the presence or absence of peptide at a concentration 16 μM. Transcript levels were measured by real-time PCR. The mRNA levels of genes are indicated relative to the expression level in the absence of peptides as 1 unit. Results shown are means and standard deviations from three independent experiments. Asterisks indicate the statistical significance of expression levels at least two fold in P. gingivalis grown in TSB with/without peptides (P<0.05; t test).

[3] = P4 stability in H2O and PBS (LC-MS/MS); assay type: physicochemical
Protocol: Non-proteinogenic amino acids may improve peptide stability.
(§1) To determine P4 stability in solution, P4 was incubated in H2O, PBS, and whole saliva at 37° C. for 24 h. P4 in each sample was compared using LC-MS/MS analysis. Briefly, 2 μM P4 was injected on C18 nano-clumn and run with 5-20% of 0.1% FA in acetonitrile for 30 min. MS spectra were acquired in a positive mode on Orbitrap LTQ XL (Thermo).

HOKs [4] = assay: Annexin V-FITC apoptosis assay (flow cytometry); assay type: cell-based, human; details: P4 as high as 200 μM, 48 h
Protocol: (§2) To examine the cytotoxic effects of P4, plasma membrane damage of HOKs was determined by the Pierce LDH Cytotoxicity Assay Kit. HOKs were seeded into a 6-well plate at a density of 1×10^5/well and cultured in Oral Keratinocyte Medium supplemented with antibiotics (100 U/mL penicillin and 100 μg/mL streptomycin) and 10% fetal calf serum at 37° C. in a humidified chamber with 5% CO2 for 24 h. The cells were then incubated with the growth medium supplemented with P4 (50 or 200 μM) for 48 h. The growth medium was collected for an LDH cytotoxicity assay according to the manufacturer's instructions (Thermo Scientific). To measure the effect of P4 on HOK apoptosis, HOKs were harvested and stained with Annexin V-FITC Apoptosis Kit (Invitrogen), which is able to stain both apoptotic cells and dead cells. Flow cytometric analysis was performed to quantitate apoptotic cells and dead cells (annexin V+/PI+).

[5] = P4 stability in whole saliva (LC-MS/MS); assay type: in vitro ADME
Protocol: as §1

[6] = P4 stability in whole saliva (LC-MS/MS); assay type: in vitro ADME; remark: listed apart in the source
HOKs [7] = assay: LDH cytotoxicity assay; assay type: cell-based, human; details: P4 as high as 200 μM, 48 h
Protocol: as §2

[8] = buffer (PBS) and TBS (growth medium of P. gingivalis)
[9] = tested on: P. gingivalis RagB (PGN_0294) and MotA/ToIQ/ExbB proton channel family protein (PGN_0806); assay: Pull-down assay of ArcA-interacting surface proteins; assay type: binding, Porphyromonas gingivalis; details: MS identification
Protocol: Pull-down assays. To isolate and identify P. gingivalis surface molecule(s) that interacts with ArcA, we performed a pull-down assay. Surface extracts of P. gingivalis were prepared by sonication with a Sonic Dismembrator (Fisher Scientific; output control 8, 20 s×3), and the cell debris were removed by centrifugation followed by filtration (0.2-μm pore size). Surface extracts of 33277 were mixed with purified ArcA on a rotator at room temperature for 1 h, and then added to an ArcA antibody coupled Sepharose 4B column (Sigma-Aldrich). After incubation at room temperature for 1 h, the column was washed three times with PBS containing 0.01% Tween, and proteins were eluted by 0.1 M Glycine pH 2.4. After SDS-PAGE, bands were excised and identified by liquid chromatography-mass spectrometry.

P. gingivalis 33277 [10] = assay: Immunofluorescence/confocal assay of ArcA binding to bacteria; set-up: species or system Porphyromonas gingivalis; details: purified ArcA 50 μg, 10^8 cells
Protocol: The upper panel presents differential interference contrast (DIC) images showing the location of the bacteria. The red images in the lower panel are the TRITC fluorescence labeling images representing S. cristatus ArcA bound to P. gingivalis 33277 or A. actinomycetemcomitans Y4 that are positively labeled by ArcA specific antibody.
Confocal microscopy. ArcA (50 μg) was purified from S. cristatus CC5A as described (Teles R, Teles F, Frias-Lopez J, Paster B, Haffajee A. 2013. Lessons learned and unlearned in periodontal microbiology. Periodontal 2000 62: 95-162), mixed with P. gingivalis cells (10^8) in PBS and incubated at room temperature for 1 h. After washing three times with PBS, bacteria-protein complexes were blocked in PBS with 5% BSA for 1 h. ArcA bound to P. gingivalis was detected by staining with rabbit anti-ArcA polyclonal antibody (1:400) and tetramethyl rhodamine isothiocyanate (TRITC, 1:500)-conjugated AffiniPure Goat Anti-Rabbit IgG antibody. Visualization was with a LSM 510 inverted confocal microscope with selected filters (543 nm excitation and 560 nm emission).

P. gingivalis = assay: Effect of ArcA domains on fimA expression; assay type: cell-based, Porphyromonas gingivalis; details: domain of ArcA as a whole
[11] = Arginine deiminase activity of ArcA domain; assay type: biochemical

Molecule | binding to P. gingivalis surface proteins [1] | inhibitory activity on virulence gene expression (P. gingivalis 33277 [2]) | Relative expression level fmA (P. gingivalis 33277 [2]) | Relative expression level kgp (P. gingivalis 33277 [2]) | Relative expression level mfa1 (P. gingivalis 33277 [2]) | Relative expression level pgn0128 (P. gingivalis 33277 [2]) | Relative expression level rgpA (P. gingivalis 33277 [2]) | Relative expression level rgpA/B (P. gingivalis 33277 [2]) | also measured
ELVRGRGGPRCMSMPF (listed as Streptococcus cristatus) [P5, ArcA-derived peptide from residue 389, C-terminal domain] | demonstrated to bind | some inhibitory activity | 0.97 | 0.96 | 0.83 | 0.91 | 0.73 | 0.72 | 
IRGRETKK (listed as Streptococcus cristatus) [P1, ArcA-derived peptide from residue 97, N-terminal domain] | demonstrated to bind | some inhibitory activity | 0.88 | 1.06 | 0.85 | 0.96 | 0.86 | 0.89 | 
NHMFADTRNRE (listed as Streptococcus cristatus) [P2, ArcA-derived peptide from residue 177, N-terminal domain] | demonstrated to bind | some inhibitory activity | 0.80 | 0.90 | 0.80 | 0.88 | 0.81 | 0.78 | 
NIFKKNVGFKK [P4, NIFKKNVGFKK] |  |  |  |  |  |  |  |  | stability at 37° C. ([3]; 37° C. for 24 h, initial study): stable; stability in H2O and PBS ([3]; 24 h incubation, 37° C.): not affected; apoptosis of HOKs (annexin V/PI) (HOKs [4]): did not induce; time P4 can maintain in saliva at certain level ([5]; 37° C.): at least 24 h; signal in diluted whole saliva ([5]; PBS:saliva 1:1, 0, 0.5, 1, 2, 4 and 24 h): gradual reduction; Signal Intensity of 331.45 m/z peak ([5]; Saliva (PBS:saliva 1:1), 0 hour): 3.9 × 10^6 ± 3.1 × 10^5; Signal Intensity of 331.45 m/z peak ([5]; Saliva, 0.5 hour, 37° C.): 3.6 × 10^6 ± 4.0 × 10^5; Signal Intensity of 331.45 m/z peak ([5]; Saliva, 1 hour, 37° C.): 2.4 × 10^6 ± 2.2 × 10^5; Signal Intensity of 331.45 m/z peak ([5]; Saliva, 2 hour, 37° C.): 1.7 × 10^6 ± 4.2 × 10^5; Signal Intensity of 331.45 m/z peak ([5]; Saliva, 4 hour, 37° C.): 8.8 × 10^5 ± 2.7 × 10^4; Signal Intensity of 331.45 m/z peak ([5]; Saliva, 24 hour, 37° C.): 4.2 × 10^5 ± 3.9 × 10^4; Signal Intensity of 331.45 m/z peak ([6]; Saliva, 48 hour, 37° C.): 6.0 × 10^3 ± 4.1 × 10^2; signal in diluted whole saliva ([6]; after 48 h): completely diP4eared; cell membrane damage of HOKs (LDH) (HOKs [7]): did not induce; solubility [8]: can be dissolved
VYNREEDTRIEGGDEL (listed as Streptococcus cristatus) [P3, ArcA-derived peptide from residue 208, C-terminal domain] | demonstrated to bind | some inhibitory activity | 0.87 | 0.99 | 0.82 | 0.91 | 0.84 | 0.98 | 
arginine deiminase [ArcA] |  |  |  |  |  |  |  |  | interaction with P. gingivalis surface proteins PGN_0294 and PGN_0806 [9]: found to interact; affinity of ArcA for bacterial cells (P. gingivalis 33277 [10]): high affinity
B1 |  |  |  |  |  |  |  |  | effect on fimA expression of P. gingivalis (P. gingivalis): observed to affect; deiminase activity [11]: does not have any deiminase activity
